Laboratory results: patent publication US20180256673A1, “METHODS FOR TREATING FUNGAL INFECTIONS” (priority 2015, published 2018)
Converted amounts (≈) assume the structure as drawn. Where two headings read alike, the source gives them in different places.

How the values were obtained:
Assay in all cases: Susceptibility testing of VVC clinical isolates at pH 7 and 4 (CLSI M27-A3)
[1] = system: C. parapsilosis vaginal isolates; assay type: cell-based, Candida parapsilosis; details: 14 isolates, read-out: MIC90
[2] = system: C. tropicalis vaginal isolates; assay type: cell-based; details: Candida tropicalis, 13 isolates, read-out: MIC90
[3] = system: C. albicans vaginal isolates; assay type: cell-based, Candida albicans; details: for MIC / MIC90: Candida albicans; for MIC: read-out: MIC; for MIC90: 60 isolates, read-out: MIC90
[4] = system: C. glabrata vaginal isolates; assay type: cell-based, Candida glabrata; details: for Number of isolates at MIC 0.03 μg/mL / Number of isolates at MIC 0.06 μg/mL / Number of isolates at MIC 0.25 μg/mL / Number of isolates at MIC 0.5 μg/mL / Number of isolates at MIC 1 μg/mL / Number of isolates at MIC 2 μg/mL / Number of isolates at MIC 0.125 μg/mL / Number of isolates at MIC 4 μg/mL / Number of isolates at MIC ≥4 μg/mL: 21 VVC isolates; for MIC90: Nakaseomyces glabratus, 21 isolates, read-out: MIC90

## CCC(C)n1ncn(-c2ccc(N3CCN(c4ccc(OCC5COC(Cn6cncn6)(c6ccc(Cl)cc6Cl)O5)cc4)CC3)cc2)c1=O (centres unmarked) [ITR, itraconazole]
[1]; pH 4, 24 h
  MIC90: 0.016 µg/mL (≈ 0.0227 µM)
[1]; pH 4, 48 h
  MIC90: 0.125 µg/mL (≈ 0.177 µM)
[1]; pH 7, 24 h
  MIC90: 0.03 µg/mL (≈ 0.0425 µM)
[1]; pH 7, 48 h
  MIC90: 0.125 µg/mL (≈ 0.177 µM)
[2]; pH 4, 24 h
  MIC90: 0.125 µg/mL (≈ 0.177 µM)
[2]; pH 4, 48 h
  MIC90: 0.5 µg/mL (≈ 0.709 µM)
[2]; pH 7, 24 h
  MIC90: 0.125 µg/mL (≈ 0.177 µM)
[2]; pH 7, 48 h
  MIC90: 0.5 µg/mL (≈ 0.709 µM)
[3]; 60 VVC isolates, 24 h, pH 4
  Number of isolates at MIC 0.008 μg/mL: 8
  Number of isolates at MIC 0.03 μg/mL: 13
  Number of isolates at MIC 0.06 μg/mL: 8
  Number of isolates at MIC 0.125 μg/mL: 2
  Number of isolates at MIC 0.25 μg/mL: 2
  Number of isolates at MIC 0.5 μg/mL: 2
  Number of isolates at MIC 2 μg/mL: 1
  Number of isolates at MIC […]: 24
[3]; 60 VVC isolates, 24 h, pH 7
  Number of isolates at MIC 0.008 μg/mL: 21
  Number of isolates at MIC 0.03 μg/mL: 9
  Number of isolates at MIC 0.06 μg/mL: 3
  Number of isolates at MIC 0.25 μg/mL: 2
  Number of isolates at MIC 0.5 μg/mL: 2
  Number of isolates at MIC 2 μg/mL: 1
  Number of isolates at MIC […]: 20
[3]; 60 VVC isolates, 48 h, pH 4
  Number of isolates at MIC 0.03 μg/mL: 23
  Number of isolates at MIC 0.06 μg/mL: 10
  Number of isolates at MIC 0.125 μg/mL: 6
  Number of isolates at MIC 0.25 μg/mL: 3
  Number of isolates at MIC 0.5 μg/mL: 3
  Number of isolates at MIC 1 μg/mL: 1
  Number of isolates at MIC […]: 10
  Number of isolates at MIC ≥4 μg/mL: 4
[3]; 60 VVC isolates, 48 h, pH 7
  Number of isolates at MIC 0.008 μg/mL: 6
  Number of isolates at MIC 0.03 μg/mL: 8
  Number of isolates at MIC 0.125 μg/mL: 6
  Number of isolates at MIC 0.25 μg/mL: 2
  Number of isolates at MIC 0.5 μg/mL: 2
  Number of isolates at MIC 2 μg/mL: 1
  Number of isolates at MIC […]: 34
  Number of isolates at MIC ≥4 μg/mL: 1
[3]; 48 h, pH 4, fluconazole-resistant isolate 1, pH 4, 48 h
  MIC: 0.125 µg/mL (≈ 0.177 µM)
[3]; 48 h, pH 4, fluconazole-resistant isolate 2, pH 4, 48 h
  MIC: 0.25 µg/mL (≈ 0.354 µM)
[3]; 48 h, pH 4, fluconazole-resistant isolate 3, pH 4, 48 h
  MIC: 0.5 µg/mL (≈ 0.709 µM)
[3]; 48 h, pH 4, fluconazole-resistant isolate 4, pH 4, 48 h
  MIC: 0.125 µg/mL (≈ 0.177 µM)
[3]; 48 h, pH 4, fluconazole-resistant isolate 5, pH 4, 48 h
  MIC: > 4 µg/mL
[3]; 48 h, pH 4, fluconazole-resistant isolate 6, pH 4, 48 h
  MIC: > 4 µg/mL
[3]; 48 h, pH 4, fluconazole-resistant isolate 7, pH 4, 48 h
  MIC: 0.5 µg/mL (≈ 0.709 µM)
[3]; 48 h, pH 4, fluconazole-resistant isolate 8, pH 4, 48 h
  MIC: > 4 µg/mL
[3]; 48 h, pH 4, fluconazole-resistant isolate 9, pH 4, 48 h
  MIC: > 4 µg/mL
[3]; 48 h, pH 4, fluconazole-resistant isolate 10, pH 4, 48 h
  MIC: 0.25 µg/mL (≈ 0.354 µM)
[3]; 48 h, pH 7, fluconazole-resistant isolate 1, pH 7, 48 h
  MIC: 0.125 µg/mL (≈ 0.177 µM)
[3]; 48 h, pH 7, fluconazole-resistant isolate 2, pH 7, 48 h
  MIC: 0.25 µg/mL (≈ 0.354 µM)
[3]; 48 h, pH 7, fluconazole-resistant isolate 3, pH 7, 48 h
  MIC: 0.5 µg/mL (≈ 0.709 µM)
[3]; 48 h, pH 7, fluconazole-resistant isolate 4, pH 7, 48 h
  MIC: 0.03 µg/mL (≈ 0.0425 µM)
[3]; 48 h, pH 7, fluconazole-resistant isolate 5, pH 7, 48 h
  MIC: 0.25 µg/mL (≈ 0.354 µM)
[3]; 48 h, pH 7, fluconazole-resistant isolate 6, pH 7, 48 h
  MIC: 0.016 µg/mL (≈ 0.0227 µM)
[3]; 48 h, pH 7, fluconazole-resistant isolate 7, pH 7, 48 h
  MIC: 0.5 µg/mL (≈ 0.709 µM)
[3]; 48 h, pH 7, fluconazole-resistant isolate 8, pH 7, 48 h
  MIC: 2 µg/mL (≈ 2.83 µM)
[3]; 48 h, pH 7, fluconazole-resistant isolate 9, pH 7, 48 h
  MIC: > 4 µg/mL
[3]; 48 h, pH 7, fluconazole-resistant isolate 10, pH 7, 48 h
  MIC: 0.125 µg/mL (≈ 0.177 µM)
[3]; pH 4, 24 h
  MIC90: 0.125 µg/mL (≈ 0.177 µM)
[3]; pH 4, 48 h
  MIC90: 5 µg/mL (≈ 7.09 µM)
[3]; pH 7, 24 h
  MIC90: 0.06 µg/mL (≈ 0.085 µM)
[3]; pH 7, 48 h
  MIC90: 0.125 µg/mL (≈ 0.177 µM)
[4]; 24 h, pH 4
  Number of isolates at MIC 0.03 μg/mL: 1
  Number of isolates at MIC 0.06 μg/mL: 2
  Number of isolates at MIC 0.25 μg/mL: 2
  Number of isolates at MIC 0.5 μg/mL: 9
  Number of isolates at MIC 1 μg/mL: 6
  Number of isolates at MIC 2 μg/mL: 1
[4]; 24 h, pH 7
  Number of isolates at MIC 0.03 μg/mL: 4
  Number of isolates at MIC 0.06 μg/mL: 2
  Number of isolates at MIC 0.125 μg/mL: 6
  Number of isolates at MIC 0.25 μg/mL: 3
  Number of isolates at MIC 0.5 μg/mL: 3
  Number of isolates at MIC 1 μg/mL: 2
  Number of isolates at MIC 4 μg/mL: 1
[4]; 48 h, pH 4
  Number of isolates at MIC 0.03 μg/mL: 1
  Number of isolates at MIC 0.06 μg/mL: 1
  Number of isolates at MIC 0.125 μg/mL: 1
  Number of isolates at MIC 0.5 μg/mL: 2
  Number of isolates at MIC 1 μg/mL: 4
  Number of isolates at MIC 2 μg/mL: 2
  Number of isolates at MIC 4 μg/mL: 2
  Number of isolates at MIC ≥4 μg/mL: 8
[4]; 48 h, pH 7
  Number of isolates at MIC 0.03 μg/mL: 1
  Number of isolates at MIC 0.06 μg/mL: 1
  Number of isolates at MIC 0.125 μg/mL: 1
  Number of isolates at MIC 0.25 μg/mL: 5
  Number of isolates at MIC 0.5 μg/mL: 8
  Number of isolates at MIC 2 μg/mL: 2
  Number of isolates at MIC ≥4 μg/mL: 3
[4]; pH 4, 24 h
  MIC90: 1 µg/mL (≈ 1.42 µM)
[4]; pH 4, 48 h
  MIC90: > 4 µg/mL
[4]; pH 7, 24 h
  MIC90: 1 µg/mL (≈ 1.42 µM)
[4]; pH 7, 48 h
  MIC90: > 4 µg/mL
